Patent US20040082635A1, “Fused cyclic compounds and medicinal use thereof” (priority 2001, published 2004)
Where a name gives a salt, the structure may show the parent alone.

Assays:
[1] = blood concentration when administered to an animal (statement only, no method); assay type: in vivo; conditions: when administered as a pharmaceutical agent to an animal; in words
[2] = test system: HCV type 1b; assay: inhibitory activity on HCV type 1b (statement only, no method); conditions: in words
[3] = test system: HCV type 1a; assay: inhibitory activity on HCV type 1a (statement only, no method); conditions: in words
[4] = biological target: T1, HCV polymerase (Hepatitis C virus genotype 1b, UniProt P26663); assay: biochemical; conditions: read-out: HCV polymerase inhibitory activity IC50
T1 construct: a region encoding NS5B (591 amino acids; J Virol 1991 Mar, 65(3), 1105-13) was amplified by PCR; 6 His (N); made in house; host or cells: Escherichia coli
T1 sequence (P26663 2420-3010): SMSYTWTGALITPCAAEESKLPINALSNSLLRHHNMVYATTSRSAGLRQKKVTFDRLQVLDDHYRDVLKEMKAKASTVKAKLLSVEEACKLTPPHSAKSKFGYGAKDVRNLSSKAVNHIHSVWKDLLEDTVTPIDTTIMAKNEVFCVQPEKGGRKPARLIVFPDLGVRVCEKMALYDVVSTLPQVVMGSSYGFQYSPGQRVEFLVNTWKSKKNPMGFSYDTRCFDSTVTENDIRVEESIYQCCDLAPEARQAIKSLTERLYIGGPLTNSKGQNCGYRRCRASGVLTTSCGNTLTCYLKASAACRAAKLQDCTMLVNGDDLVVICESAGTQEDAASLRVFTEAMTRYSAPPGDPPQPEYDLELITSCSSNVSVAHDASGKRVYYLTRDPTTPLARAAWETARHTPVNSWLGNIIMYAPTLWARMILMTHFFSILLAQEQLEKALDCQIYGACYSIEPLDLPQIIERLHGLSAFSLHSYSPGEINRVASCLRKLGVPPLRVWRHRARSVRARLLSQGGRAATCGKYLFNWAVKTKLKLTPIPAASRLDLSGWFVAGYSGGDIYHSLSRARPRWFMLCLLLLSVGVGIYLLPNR

Compound	melting point [°C]	IC50 [4] [µM]	also measured
NC(=O)c1ccc2c(c1)nc(-c1ccc(OCc3ccccc3)cc1)n2C1CCCC1	232 to 233		
Cl.O=C(O)c1ccc2c(c1)nc(-c1ccc(OCc3cc(N4CCCC4=O)ccc3-c3ccc(Cl)cc3)cc1F)n2C1CCCCC1	243 to 246		
Cl.O=C(O)c1ccc2c(c1)nc(-c1ccc(OCc3cc(N4CCCC4=O)ccc3-c3ccc(Cl)cc3)cc1F)n2C1CCCCC1 [2-{4-[2-(4-chlorophenyl)-5-(2-oxopyrrolidin-1-yl)benzyloxy]-2-fluorophenyl}-1-cyclohexylbenzimidazole-5-carboxylic acid hydrochloride]			blood concentration [1]: high blood concentration; inhibitory activity on HCV type 1b [2]: high inhibitory activity; inhibitory activity on HCV type 1a [3]: high inhibitory activity
O=C(O)c1ccc2c(c1)nc(-c1ccc(Oc3cccc(Br)c3)cc1)n2C1CCCCC1 [Example 2, 2-[4-(3-bromophenoxy)phenyl]-1-cyclohexylbenzimidazole-5-carboxylic acid]	255 to 256	0.079	
O=C(O)c1ccc2c(c1)nc(-c1ccc(OCc3cc(Cl)ccc3-c3ccc(Cl)cc3)cc1)n2C1CCCCC1 [Example 6]	243 to 244		
COc1ccc(-c2ccc(Cl)cc2)c(COc2ccc(-c3nc4cc(C(=O)O)ccc4n3C3CCCCC3)cc2)c1 [Example 9, 2-{4-[2-(4-chlorophenyl)-5-methoxybenzyloxy]phenyl}-1-cyclohexylbenzimidazole-5-carboxylic acid]	248 to 249	0.019	
Cc1nc(-c2ccc(F)cc2)c(COc2ccc(-c3nc4cc(C(=O)O)ccc4n3C3CCCCC3)cc2)s1 [Example 17, 1-cyclohexyl-2-{4-[{4-(4-fluorophenyl)-2-methyl-5-thiazolyl}methoxy]phenyl}benzimidazole-5-carboxylic acid]	196 to 198	0.047	
O=C(O)c1ccc2c(c1)nc(-c1ccc(OC(c3cccc(F)c3)c3cccc(F)c3)cc1F)n2C1CCCCC1 [Example 20, 2-{4-(bis[3-fluorophenyl]methoxy)-2-fluorophenyl}-1-cyclohexylbenzimidazole-5-carboxylic acid]	242 to 243	0.042	
O=C(O)c1ccc2c(c1)nc(-c1ccc(Oc3cccc(-c4cccc(Cl)c4)c3)cc1)n2C1CCCCC1 [Example 26, 2-{4-[3-(3-chlorophenyl)phenoxy]phenyl}-1-cyclohexylbenzimidazole-5-carboxylic acid]	253 to 254	0.033	
O=C(O)c1ccc2c(c1)nc(-c1ccc(Oc3cccc(OCc4ccncc4)c3)cc1)n2C1CCCCC1 [Example 30, 1-cyclohexyl-2-{4-[3-(4-pyridylmethoxy)phenyloxy]-phenyl}benzimidazole-5-carboxylic acid]	235 to 237	0.052	
CC(=O)N(c1ccc(-c2ccc(Cl)cc2)c(COc2ccc(-c3nc4cc(C(=O)O)ccc4n3C3CCCCC3)c(F)c2)c1)C(C)C [Example 469, 2-[4-{2-(4-chlorophenyl)-5-(N-acetyl-N-isopropylamino)-benzyloxy}-2-fluorophenyl]-1-cyclohexylbenzimidazole-5-carboxylic acid hydrochloride]		0.024	
COc1ccc(-c2ccc(Cl)cc2)c(COc2ccc(-c3cc4cc(C(=O)O)ccc4n3C3CCCCC3)cc2)c1 [Example 502, 2-{4-[2-(4-chlorophenyl)-5-methoxybenzyloxy]phenyl}-1-cyclohexyl-1H-indole-5-carboxylate acid]		0.024	
O=C(O)c1ccc2c(c1)cc(-c1ccc(OCc3ccccc3)cc1)n2C1CCCC1 [Example 503, 2-(4-benzyloxyphenyl)-1-cyclopentyl-1H-indole-5-carboxylic acid]		0.196	
CCOC(=O)c1ccn2c(C3CCCCC3)c(-c3ccc(OCc4ccccc4)cc3)nc2c1 [Example 601, ethyl 2-(4-benzyloxyphenyl)-3-cyclohexylimidazo-[1,2-a]pyridine-7-carboxylate]		0.32	
COc1ccc(-c2ccc(Cl)cc2)c(COc2ccc(-c3nc4cc(C(=O)O)cnc4n3C3CCCCC3)cc2)c1 [Example 701, 2-{4-[2-(4-chlorophenyl)-5-methoxybenzyloxy]phenyl}-3-cyclohexyl-3H-imidazo[4,5-b]pyridine-6-carboxylic acid]		0.052	
